Entries after “also recorded” stand apart in the source; their conditions may differ. Primed or numbered codes have the meaning given here. No end group written: not given here. FITC′ = not defined here
Tests used:
[1] = target: T1, XIAP (X-linked inhibitor of apoptosis protein) (Homo sapiens, UniProt P98170); assay: Inhibition of XIAP function: UV-induced apoptosis of XIAP-transfected Jurkat E6 cells (Annexin V FACS); assay type: cell-based; settings: 0.1, 0.5, 1 μg/ml peptide, 2 hr
T1 construct: expressed in transfected cells; host or cells: Jurkat E6
Protocol: Since the first amino acid, alanine, of the 7-amino acid sequence at the N-terminal of the Smac/DIABLO peptide is pivotal in binding to XIAP, as reported previously, CTP was linked to C-terminal of the Smac/DIABLO peptide to prepare Smac/Diablo-CTP-FITC peptide. For detection, FITC was conjugated at the C-terminal of the peptide: Smac/Diablo-CTP-FITC ([…]-FITC).
Jurkat E6 (2×10^5 cell/ml) were transfected with 10 μg of pcDNA3-XIAP using a transfection reagent, GenePORTER 2 (1 μl/μg DNA) and cultured for 2 days at 37° C. in RPMI containing 10% FBS. Two days later, the cells were washed twice with 1× PBS, and treated with Smac/Diablo-CTP-FITC peptide (synthesized at HHMI, KECK BIOTECHNOLOGY RESOURCE CENTER) for 2 hr at 37° C. in a serum free media at concentrations of 0.1 μg/ml, 0.5 μg/ml and 1 μg/ml. Then, to measure the extent of apoptosis, the cells were exposed to UV light (40 W) for 50 sec in a culture hood. After 6 hr, the cells were washed twice with 1 × PBS and the apoptozed cells were measured by FACS using Annexin V-FITC apoptosis detection kit (BD Biosciences Pharmingen. Cot: 556547).

HeLa cells [2] = assay: Transduction of PTD- and CTP-β-galactosidase into HeLa cells (X-gal staining after fixation); assay type: cell-based; settings: 100 μg/ml, 1 hr; for transduction potential: β-galactosidase fusion protein, HeLa cells, fixation; for order of transduction potentials into HeLa cells: β-galactosidase fusion, X-gal staining
Source text: Although various other substitutions could be performed, it is essential in this invention that the introduction of a positive charge by arginine and the substitution by an α-helix stabilizing amino acid should be carried out for maintaining the principle function of the PTD peptide. Therefore, as a substitute amino acid, the positively charged amino acid is restricted to arginine, and the negatively charged amino acid is restricted to glutamic acid. β-galactosidase was fused to the CTP candidate peptide, the fusion proteins were isolated and purified (see FIG. 2), and HeLa cells were treated with each of the fusion proteins. This was then followed by an analysis of the transduction potential and a determination of the extent of the cytoplasmic remaining property.
The transduction potential of the PTD and CTP candidates was tested with HeLa cells. Using a 24-well plate (Nunc), 5×10^4 HeLa cells were inoculated into high glucose DMEM (containing 10% FBS) and cultured for 36 hr. The cells were rinsed with PBS and treated with 100 μg/ml of PTD- and CTP-β-galactosidase in an opti-MEM I medium. After 1-hr incubation, cells were fixed for 10 min at room temperature with a fixation solution (2% formaldehyde, 0.2% glutaraldehyde in PBS). Then, the cells were rinsed twice with PBS, and stained for 2 hr with dye (0.1% X-gal, 5 mM potassium ferricyanide, 5 mM potassium ferrocyanide, 2 mM MgCl2 in PBS) to examine their transduction potential (see FIG. 3). The samples showing a low level of staining, even after a 2-hr staining, were incubated overnight, and then stained for the relative transduction potential. The transduction potentials of the PTD and CTP candidates into HeLa cells were seen to be in the following order: PTD5<CTP502<<CTP501=CTP506<CTP507<CTP505<CTP503=CTP504<CTP508=CTP510=MTS<CTP509<<PTD=CTP511<<CTP512.

HeLa cells [3] = assay: Subcellular localization of CTP-β-gal by confocal scanning microscope; assay type: cell-based; settings: β-galactosidase fusion protein, 100 μg/ml, 1 hr
Source text: To select cytoplamic transduction peptides (CTPs) of interest, HeLa cells were transduced with CTP-β-galactosidase, and then examined under the confocal scanning microscope. Before the confocal analysis, cells were stained with mouse anti-β-galactosidase antibody and 2nd antibodies conjugated with FITC (Fluorescence-iso-thio-cyanate) or with PE (phycoerythrin) together with DNA staining reagent (green fluorescence SYTO-16 DNA staining dye, Molecular Probe). First, HeLa cells (5×10^5 cells/ml) were plated onto a 6-well plate containing sterilized cover-slips and cultured overnight at 37° C. CO2 incubator. The cells were washed with PBS (pH 7.4) and 1 ml of an OPTI-MEM I medium was added, followed by treatment with candidate CTP-fused proteins (100 μg/ml). As a positive control, PTD-β-galactosidase fusion protein was employed, and as a negative control, only β-galactosidase protein was used. Following the treatment with candidate CTP-β-galactosidase fusion proteins, cells were incubated for 1 hr at 37° C. incubator. The cells were rinsed three times with PBS and fixed with 2% paraformaldehyde for 20 min at 4° C. HeLa cells fixed were washed twice with washing buffer (PBS containing 0.2% BSA and 0.02% sodium azide). To stain the cells with antibody, cells were pre-treated with 0.5% Triton X-100 (in PBS, Sigma) at 4° C. for 20 min. Cells were washed three times with washing buffer and then stained with mouse anti-β-galactosidase antibody (diluted 1:2,000, Sigma) for 1 hr at 4° C. as a primary antibody and then washed three times with washing buffer. Cells were then incubated with FITC-conjugated goat anti-mouse IgG (diluted 1:2,000, Jackson Laboratory) as a secondary antibody for 20 min at 4° C. Washed 3 times with the same washing buffer, cells were fixed on a slide glass with fluorescence mounting medium (DAKO) and the edge of slide glass was sealed with nail vanish.
Double staining was carried out with SYTO-16 DNA staining dye as follows: First, the cells were incubated with the primary antibodies under the same conditions and rinsed three times. Then, the cells were incubated at 4° C. for 20 min with PE-conjugated goat anti-mouse IgG PE (diluted 1:2,000, Jackson Laboratory). Washed three times with washing buffer, cells were incubated with SYTO-16 DNA staining dye (diluted 1:1,000, DAKO) for 20 min at 4° C. Cells were fixed and sealed on a slide glass and then examined under a confocal laser scanning microscope.
In the present experiment, LEICA TCS NT SP confocal microscope (LEICA Lasertech GmbH, Heidelverg, Germany) was employed, which was equipped with lager generator of argon (Ar) and krypton (Kr), scanning device, and filter capable of detecting FITC (510–550 nm) and PE (600–660) at independent channel. Photographs were taken by PL-APO X100 objective. For single staining, the cells were sectioned into 4-layers and fluorescence and transmission photographs were taken. For double staining, FITC, PE, and transmission photographs were taken using optimal respective filter.

HeLa cells [4] = assay: Transduction potential of CTP-β-gal following treatment with trypsin (staining); assay type: cell-based; settings: 50 μg/ml, 20 hr, trypsin before fixation
Protocol: HeLa cells were cultured for 1 day in DMEM (high glucose) at a density of 2×10^5/ml in 48-well plates. Cells were washed once with 1× PBS, and then incubated further for additional 20 hr in OPTI-MEM containing PTD-β-gal, MTS-β-gal, CTP501-β-gal or CTP514-β-gal, respectively, at a concentration of 50 μg/ml. Thereafter, the cells were treated with trypsin-EDTA (10×) for 3 min at 37° C. to remove the CPP-β-gal attached to the cell surface, and then rinsed twice with 1× PBS, followed by fixing with a fixation solution for 10 min at room temperature. After washing twice with 1× PBS, the cells were stained with a staining solution for 2 hr at 37° C. and photographed under a microscope (FIG. 6b).

HeLa cells [5] = assay: Subcellular localization of CTP-FITC by confocal microscope without cell fixation; assay type: cell-based; settings: FITC-labeled peptide, 25 μg/ml, 1 hr
Source text: Fixation step is inevitable for examining the subcellular localization of the transduced β-gal in the cells with antibodies. However, according to the previous reports, the fusion protein attached to cell surface is very likely to be introduced into the cell during a cell fixation procedure, which may affect its transduction potential and its subcellular localization. However, FITC-labeled membrane permeation peptides allow its subcellular localization to be observed under a confocal microscope without cell fixation. Monolayered HeLa cells were treated for 1 hr with FITC-labeled CTP, PTD or MTS at a concentration of 25 μg/ml, and washed three times with HBSS, followed by observation under a confocal microscope without cell fixation.

[6] = cited from earlier work
HeLa cells [7] = assay: Kinetics on the transduction of CTP-β-gal and PTD-β-gal; assay type: cell-based; settings: trypsin prior to cell harvest
Protocol: The Membrane permeability of CTP-β-gal and PTD-β-gal was analyzed in kinetics. Cells were treated with the fusion protein and lysed with 0.9% Triton X-100 solution without trypsinization, after which the overall β-gal activity in the cells was measured. Furthermore, in order to measure the authentic trnsduction amount of β-gal imported into the cells, the cells were trypsinized following the treatment with fusion protein, and then examined the amount of the β-gal activity imported into the cells in the same conditions (see FIG. 8).

[8] = set-up: species or system BALB/c mice; settings: mouse, in vivo, iv
Protocol: To elucidate whether the CTP of this invention can deliver its fusion partner into cells in vivo as well as into cells in vitro, BALB/c mice were injected i.p. with 25 μg/(g of mouse) of CTP-β-gal, PTD-β-gal, MTS-β-gal fusion protein or β-gal protein, or injected i.v. via tail vein with 100 μg/mouse of fusion proteins. Four hr after injection, mice were euthanized and skinned, and their peritoneal cavities were dissected, followed by washing three times with a PBS buffer. After fixation with a fixing solution, whole body was stained in X-gal solution. Each organ was extracted and the β-gal activity was measured.

[9] = mouse, in vivo
Protocol: CTP-β-gal was administered via the peritoneal cavity or a tail vein of mice. Four hr later, organs such as thymus, heart, spleen, liver and kidney were extracted. The organs rapidly frozen were sectioned with a microtome, and then incubated overnight in a X-gal reaction solution, followed by observation of the β-gal activity under a microscope.

T1 sequence (P98170 whole entry, species assumed): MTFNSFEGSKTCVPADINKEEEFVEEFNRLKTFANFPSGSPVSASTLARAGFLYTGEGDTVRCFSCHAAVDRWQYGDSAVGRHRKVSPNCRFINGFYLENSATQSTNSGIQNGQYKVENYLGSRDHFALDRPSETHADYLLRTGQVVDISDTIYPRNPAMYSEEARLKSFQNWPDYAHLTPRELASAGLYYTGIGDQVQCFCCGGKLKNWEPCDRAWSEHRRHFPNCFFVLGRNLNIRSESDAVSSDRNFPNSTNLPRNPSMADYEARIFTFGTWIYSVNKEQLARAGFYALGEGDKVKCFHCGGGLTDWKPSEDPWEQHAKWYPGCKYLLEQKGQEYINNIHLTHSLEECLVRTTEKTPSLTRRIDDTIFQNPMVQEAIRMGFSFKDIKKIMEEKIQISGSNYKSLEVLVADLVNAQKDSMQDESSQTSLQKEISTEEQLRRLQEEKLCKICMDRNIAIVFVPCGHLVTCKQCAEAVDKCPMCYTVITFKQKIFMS

Which “apoptosis of cells transfected with 10 μg pcDNA-XIAP DNA” value [1] does the source give for “AVPIAQKSEGGRRARRRRRRK-FITC (AVPIAQKSEGGRRARRRRRRK-{FITC′}) [Smac/Diablo-CTP-FITC, N-terminal Smac/DIABLO peptide linked to CTP, FITC at the C-terminal]” here?
The value was “greatly increased”.

Which results are given for “CTP511: CTP candidate (2G4R8R), sequence YGRRARRRARR”?
transduction potential (HeLa cells [2]): transduction potential similar to the wild type PTD; also recorded: significantly high transduction potential; transduction potential (HeLa cells [2]; listed as CTP 511): transduction potential identical to PTD; order of transduction potentials into HeLa cells (HeLa cells [2]): PTD=CTP511<<CTP512; cytoplasmic remaining property / subcellular localization (HeLa cells [3]): significantly high; cytoplasmic remaining property / subcellular localization (HeLa cells [3]; listed as CTP 511): excellent cytoplasmic remaining property; β-gal activity transduced into cells (HeLa cells [4]): almost equivalent to that of the PTD

Which “β-gal activity transduced into cells” value (HeLa cells [4]) does the source give for “CTP513: CTP (2G4R5R8R9R), sequence YGRRRRRRRRR” here?
The value was “much more efficient to transduce β-gal into cells than either PTD or MTS”.

And the “order of transduction potential” value (HeLa cells [5])?
The value was “CTP512>513>>514”.

And the subcellular localization (HeLa cells [5])?
Its subcellular localization is “observed only in the cytoplasm, and not in the nucleus”.

For “CTP514: CTP (2R4R5R8R9R), sequence YRRRRRRRRRR”, which “β-gal activity transduced into cells” value (HeLa cells [4]) is on record?
Its value is “almost equivalent to that of the PTD”.

What about the subcellular localization (HeLa cells [5]) of the same substance?
Its subcellular localization is “observed only in the cytoplasm, and not in the nucleus”.

Which “order of transduction potentials into HeLa cells” value (HeLa cells [2]) does the source give for “PTD5: PTD derivative of the Dowdy group; differs from CTP504 only by alanine at position 2, i.e. YARAARRAARR (CTP50, Table 1) [reference compound]” here?
Its value is “PTD5<CTP502”.

And the “cytoplasmic remaining property / subcellular localization” value (HeLa cells [3])?
Its value is “relatively increased pattern in terms of the extent it remains in the cytoplasm as compared to PTD”.

What about the “efficiency of delivering peptides into the cell, higher than PTD (TAT)” value ([6]; peptides, reported by the Dowdy group) of the same substance?
The value was 8 fold.

Which “transduction efficiency greater than Tat PTD” value ([6]; Wender et al., 2000) does the source give for “RRRRRRRRR [Arg polycationic homopolymer]” here?
Its value is 20 fold.

With “β-gal: only β-galactosidase protein, negative control” as the substance, how does the “transduction potential / import into cells over time” value (HeLa cells [7]) read?
Its value is “not to be imported into cells with the lapse of time”.

What about the “β-gal activity in auxiliary, inguinal and popliteal lymph nodes” value [8] of the same substance?
Its value is “not observed”.

What about the “β-gal activity in organ sections (thymus, heart, spleen, liver, kidney)” value [9] of the same substance?
The value was “little or no β-gal activity in the inner side”.
